These results are taken from US11866433B2, “Diarylthiohydantoin compound as androgen receptor antagonist” (CHIA TAI TIANQING PHARMACEUTICAL GROUP CO., LTD., priority 2017, dated 2024).

What all share (assay type): in vivo
A short description of series [1]: Pharmacokinetic test of Compound 10 in mice (intravenous and intragastric). Particulars: mouse, plasma, male CD-1 mice; for AUC(0-inf): read-out: Curve Area (0-inf) AUC0-inf; for AUC(0-t): read-out: Curve Area (0-t) AUC0-last; for half-life: read-out: Half Life T1/2 (converted). As for the experimental part: Taking male CD-1 mice as test animals, drug concentrations in plasma at different moments after intravenous and intragastric administration of Compound 10 to the mice were determined by the LC/MS/MS method. The pharmacokinetic behavior of Compound 10 in mice was investigated and its pharmacokinetic profile was evaluated.
2.2 Test Animals: Four healthy adult male CD-1 mice were divided into 2 groups, with 2 mice in each group, according to the principle of similar body weight. The animals were purchased from Shanghai Super-BK Laboratory Animal Co., Ltd., with Animal Production License No.: SCXK (Shanghai) 2013-0016.
2.3 Drug Preparation An appropriate amount of sample was weighed, and an appropriate amount of DMSO, PEG400 and water were added successively at a volume ratio of 10:40:50. After stirring and ultrasonic processing, the resulting mixture reached a clear solution state of 0.4 mg/mL for intravenous administration.
An appropriate amount of sample was weighed, and dissolved in a solution of 0.5% CMC+0.2% Tween 80. After stirring and ultrasonic processing, the resulting mixture reached a uniform suspension state of 0.4 mg/mL for intragastric administration.
Four male CD-1 mice were divided into 2 groups, and fasted overnight. The first group was intravenously administered at an administration volume of 2.5 mL/kg in a dose of 1 mg/kg; and the second group was intragastrically administered at an administration volume of 5 mL/kg in a dose of 2 mg/kg.
(§1) After Compound 10 was intravenously administered to the male CD-1 mice, 30 μL of blood was collected at 0.0833, 0.25, 0.5, 1, 2, 4, 8, and 24 h respectively, and placed in test tubes containing 2 μL of EDTA-K2. After Compound 10 was administered to the intragastric administration group, 30 μL of blood was collected at 0.25, 0.5, 1, 2, 4, 8, and 24 h respectively, and placed in test tubes containing 2 μL of EDTA-K2. The test tubes were centrifuged at 3000 g for 15 min to separate the plasma, which was stored at −60° C. The animals were allowed to eat 2 hours after administration.
(§2) After intravenous and intragastric administration to the mice, the content of the test compound in plasma was determined by the LC/MS/MS method. The linear range of the method was 2.00-6000 nmol/L; and the plasma samples were analyzed after the treatment with acetonitrile precipitated protein.

Series [2] is described as follows: Tissue distribution test of Compound 27 and Compound 10 (plasma and brain). The note with it: intragastric 2 mg/kg, 2 h after administration, male CD-1 mice. As for the experimental part: Taking male CD-1 mice as test animals, drug concentrations in plasma and brain after intragastric administration of Compound 27 and Compound 10 to the mice were determined by the LC/MS/MS method, respectively.
2.2 Test Animals: Six healthy adult male CD-1 mice were divided into 2 groups, with 3 mice in each group, according to the principle of similar body weight. The animals were purchased from Shanghai Super-BK Laboratory Animal Co., Ltd., with Animal Production License No.: SCXK (Shanghai) 2013-0016.
An appropriate amount of sample was weighed, and an appropriate amount of DMSO, PEG400 and water were added successively at a volume ratio of 10:40:50. After stirring and ultrasonic processing, the resulting mixture reached a clear solution state of 0.4 mg/mL.
Six male CD-1 mice were divided into 2 groups, fasted overnight, and intragastrically administered at an administration volume of 5 mL/kg in a dose of 2 mg/kg.
After Compound 27 and Compound 10 were intragastrically administered to the male CD-1 mice, 100 μL of blood was collected by cardiac puncture at 2 h, placed in a test tube containing 2 μl of EDTA-K2, and centrifuged at 3000 g for 15 min to separate 50 μL of plasma, which was stored at −60° C. Meanwhile, brain tissues were collected, washed, then homogenized with 5-fold 15 mM PBS/MeOH (v:v, 2:1), and stored at −60° C. The animals were allowed to eat 2 hours after administration.
(§3) After intragastric administration to the mice, the content of the test compound in plasma and brain was determined by the LC/MS/MS method. The linear range of the method was 2.00-6000 nmol/L; and the plasma samples were analyzed after the treatment with acetonitrile precipitated protein.

Series [3] is described as follows: Pharmacokinetic test of Compound 35 and Compound 58 in mice (intravenous and intragastric). Particulars: mouse, plasma, male CD-1 mice; for AUC(0-t): read-out: Curve Area (0-t) AUC0-last; for Cmax: read-out: Plasma Concentration Cmax; for Tmax: read-out: Time to Peak Tmax; for Vd: read-out: Apparent Volume of Distribution Vdss; for clearance: read-out: Clearance Rate CI; for AUC(0-inf): read-out: Curve Area (0-inf) AUC0-inf; for half-life: read-out: Half Life T1/2 (converted). As for the experimental part: With reference to Example 76, the pharmacokinetic behaviors of Compound 35 and Compound 58 in mice were investigated and their pharmacokinetic profiles were evaluated.
2. Experimental Protocol Refers to Example 76.
as §1, with “Compound 35 and Compound 58 were” for “Compound 10 was”, “was cross-collected” for “was collected”, “8, 24,” for “8,”, “and 48” for “and 24”, “tubes was” for “tubes were”, “eat 4” for “eat 2”
as §2

Series [4] in a line: Tissue distribution test of Compound 35 and Compound 58 (plasma and brain). Particulars: intragastric 2 mg/kg, 4 h after administration, male CD-1 mice; for Kp at 4 h / concentration at 4 h: mouse, oral; for Kp at 4 h: brain / plasma, read-out: Brain to Blood Ratio; for concentration at 4 h: plasma. On the procedure: Taking male CD-1 mice as test animals, drug concentrations in plasma and brain after intragastric administration of Compound 35 and Compound 58 to the mice were determined by the LC/MS/MS method, respectively.
2.2 Test Animals: Two healthy adult male CD-1 mice. The animals were purchased from Shanghai Sippr-BK Laboratory Animal Co., Ltd.
An appropriate amount of sample was weighed, and added in a solution of 0.5% CMC+0.2% Tween in water. After stirring and ultrasonic processing, the resulting mixture reached a suspension state of 0.4 mg/mL.
Two male CD-1 mice were fasted overnight, and intragastrically administered at an administration volume of 5 mL/kg in a dose of 2 mg/kg.
After Compound 35 and Compound 58 were intragastrically administered to the male CD-1 mice, 100 μL of blood was collected by cardiac puncture at 4 h, placed in a test tube containing 2 μl of EDTA-K2, and centrifuged at 3000 g for 15 min to separate 30 μL of plasma, which was stored at −60° C. Meanwhile, brain tissues were collected, washed, then homogenized with 9-fold 15 mM PBS/MeOH (v:v, 2:1), and stored at −60° C. The animals were allowed to eat 4 hours after administration.
as §3

Setting [5] is: po, intragastric administration, 2 mg/kg.
[6] abbreviates: intravenous administration, 1 mg/kg.

The structures appear in SMILES notation.

Take `CCc1nc(OCCO)c2cc(N3C(=S)N(c4ccc(C#N)c(C(F)(F)F)c4)C(=O)C3(C)C)cc(F)c2n1` [Compound 10]: in series [1] (setting [5]), the bioavailability was 41.7%, the AUC(0-inf) was determined as 27.9 µM·h, the AUC(0-t) was 26.3 µM·h and the half-life is 5.5 h. Moreover, the Cmax in series [1] (po, intragastric administration, 2 mg/kg, read-out: Plasma Concentration Cmax) stood at 2.77 µM. In series [1] (po, intragastric administration, 2 mg/kg, read-out: Time to Peak Tmax), the Tmax amounted to 4 h. Besides, the Vd in series [1] (intravenous administration, 1 mg/kg, read-out: Apparent Volume of Distribution Vdss) is 0.384 L/kg. Also, the clearance in series [1] (intravenous administration, 1 mg/kg, read-out: Clearance Rate CI) was found to be 0.912 mL/min/kg. In series [1] (setting [6]), the AUC(0-inf) amounted to 33.5 µM·h, the AUC(0-t) turned out to be 32.3 µM·h and the half-life is 4.88 h. Further, the “Concentration in Brain” value in series [2] was 67.38 ± 44.5 nmol/kg. Besides, in series [2] (mouse, brain / plasma, oral, read-out: Brain to Blood Ratio), the Kp at 2 h came out at 0.0133 ± 0.0006. This compound had a concentration at 2 h in series [2] (mouse, plasma, oral) of 5 ± 3.16 µM.
As to `CCc1cc(=O)n2cc(N3C(=S)N(c4ccc(C#N)c(C(F)(F)F)c4)C(=O)C3(C)C)cc(F)c2n1` [Compound 35], in series [3] (setting [5]), the bioavailability was 94%, the AUC(0-t) was found to be 110 µM·h, the Cmax was 5.78 µM and the Tmax came to 6 h. Further, in series [3] (setting [6]), the Vd is 0.667 L/kg, the clearance came out at 0.189 mL/min/kg, the AUC(0-inf) came out at 194 µM·h and the AUC(0-t) was 58.7 µM·h. In addition, the half-life in series [3] (setting [6]) is 45.1 h. For the same compound, in series [4], the “Concentration in Brain” value came to 281 nmol/kg, the Kp at 4 h worked out at 0.0742 and the concentration at 4 h amounted to 4.12 µM.
For `CCc1cc(=O)n2cc(N3C(=S)N(c4ccc(C#N)c(Cl)c4)C(=O)C3(C)C)cc(F)c2n1` [Compound 58], in series [3] (setting [5]), the AUC(0-t) came to 370 µM·h, the Cmax is 12.8 µM and the Tmax worked out at 8 h. Besides, in series [3] (setting [6]), the Vd was determined as 0.248 L/kg, the clearance amounted to 0.0794 mL/min/kg, the AUC(0-inf) is 447 µM·h and the AUC(0-t) was 271 µM·h. The half-life in series [3] (setting [6]) was 36.6 h. Besides, in series [4], the “Concentration in Brain” value turned out to be 265 nmol/kg, the Kp at 4 h came out at 0.0322 and the concentration at 4 h worked out at 8.26 µM.

The bioavailability is dose-corrected exposure relative to a reference, in per cent. The low end stands for poor availability, the high end for good availability. For orientation: Tmax means the time at which the peak concentration occurs. For orientation: clearance means a measure of how efficiently the substance is removed, as volume per time.
